Measurements from patent publication US20240400584A1, “COMPOUNDS AND METHODS FOR MODULATING SPLICING” (REMIX THERAPEUTICS INC., priority 2021, published 2024).

Tests used:
HTT [1] = assay: RT-qPCR splicing assay, HTT AJ/CJ mRNA; assay type: cell-based, human; conditions: Homo sapiens, 24 h, A673 or K562 cells; for IC50: decrease in canonical junction mRNA; for AC50: increase in alternative junction mRNA
How it was run: (§1)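 HTT and MYB canonical (CJ) and alternative-exon (AJ) junction transcripts quantified by one-step RT-qPCR from lysates of A673 or K562 cells treated 24 h with 11-point 3-fold dilutions (top 10 uM, ≤0.25% DMSO). Ct normalized to GAPDH, GUSB or PPIA and DMSO control (2^−ΔΔCt), expressed as % response.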

MYB [2] = assay: RT-qPCR splicing assay, MYB AJ/CJ mRNA; assay type: cell-based; conditions: Homo sapiens, A673 or K562 cells, 24 hours; for IC50: decrease in canonical junction mRNA; for AC50: increase in alternative junction mRNA
How it was run: as §1

HTT [3] = assay: Gene panel canonical junction qPCR assay, HTT CJ mRNA (Table 7); assay type: cell-based, human; conditions: Homo sapiens, read-out: HTT CJ mRNA decrease IC50
How it was run: (§2)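 Canonical-junction transcript decrease reported as IC50 from a 4-parameter logistic fit of percentage response, derived from 2^(−ΔΔCt) versus housekeeper (GAPDH/GUSB/PPIA) and DMSO control using preset ΔCt windows. Readout by cDNA synthesis and qPCR with exon-junction-overlapping probesets in compound-treated K562 or A673 cells.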

SMN2 = assay: Gene panel canonical junction qPCR assay, SMN2 CJ mRNA (Table 7); assay type: cell-based; conditions: Homo sapiens, read-out: SMN2 CJ mRNA decrease IC50
How it was run: as §2

MYB [4] = assay: Gene panel canonical junction qPCR assay, MYB CJ mRNA (Table 7); assay type: cell-based; conditions: Homo sapiens, read-out: MYB CJ mRNA decrease IC50
How it was run: as §2

Target C = assay: Gene panel canonical junction qPCR assay, Target C CJ mRNA (Table 7); assay type: cell-based, human; conditions: Homo sapiens, read-out: Target C CJ mRNA decrease IC50
How it was run: as §2

Structure (SMILES) | IC50 (HTT [1]) | AC50 (HTT [1]) | IC50 (MYB [2]) | AC50 (MYB [2]) | IC50 (HTT [3]) | IC50 (SMN2) | IC50 (MYB [4]) | IC50 (Target C)
CN1CCCC2(CCN2c2ccc3c(n2)OCc2cc(-c4cn[nH]c4)ccc2-3)C1 (stereo not drawn) [Compound 222, 6-methyl-1-[8-(1H-pyrazol-4-yl)-6H-isochromeno[3,4-b]pyridin-3-yl]-1,6-diazaspiro[3.5]nonane] | > 10 µM | > 10 µM | > 10 µM | > 10 µM | > 10 µM | > 10 µM | > 10 µM | > 10 µM
CC(C)(C)N[C@@H]1CCN(c2ccc3c(n2)OCc2cc(-c4cn[nH]c4)ccc2-3)C1 [Compound 257, (3R)—N-tert-butyl-1-[8-(1H-pyrazol-4-yl)-6H-isochromeno[3,4-b]pyridin-3-yl]pyrrolidin-3-amine] | < 0.1 µM | < 0.1 µM | 0.1 to 1 µM | 0.1 to 1 µM | < 0.1 µM | < 0.1 µM | 0.1 to 1 µM | < 0.1 µM
COc1cc(-c2cc3c(cc2F)-c2ccc(OC4CC(C)(C)NC(C)(C)C4)nc2OC3)cnn1 [Compound 244] | 0.1 to 1 µM | < 0.1 µM | 0.1 to 1 µM | 0.1 to 1 µM | 0.1 to 1 µM | 0.1 to 1 µM | 0.1 to 1 µM | 0.1 to 1 µM
COc1cc(-c2ccc3c(c2)COc2nc(N4CCC(NC5(C)CC5)C4)ccc2-3)cnn1 (stereo not drawn) [Compound 256, 1-[8-(6-methoxypyridazin-4-yl)-6H-isochromeno[3,4-b]pyridin-3-yl]-N-(1-methylcyclopropyl)pyrrolidin-3-amine] | 0.1 to 1 µM | 0.1 to 1 µM | 1 to 10 µM | 1 to 10 µM | 0.1 to 1 µM | 0.1 to 1 µM | 1 to 10 µM | 0.1 to 1 µM
c1cnn(-c2ccc3c(c2)COc2nc(N(C4CCNCC4)C4CC4)ccc2-3)c1 [Compound 202] | 1 to 10 µM | > 10 µM | 1 to 10 µM | > 10 µM | 1 to 10 µM | > 10 µM | 1 to 10 µM | > 10 µM
CCOc1cc(-c2ccc3c(c2)COc2nc(N4CCC(NC(C)(C)C)C4)ccc2-3)cnn1 (stereo not drawn) [Compound 267, N-tert-butyl-1-[8-(6-ethoxypyridazin-4-yl)-6H-isochromeno [3,4-b]pyridin-3-yl]pyrrolidin-3-amine] | 0.1 to 1 µM | 1 to 10 µM | > 10 µM | > 10 µM | 0.1 to 1 µM | 0.1 to 1 µM | > 10 µM | 1 to 10 µM
CN(C)[C@H]1[C@@H]2CN(c3ccc4c(n3)OCc3cc(-n5cccn5)ccc3-4)C[C@@H]21 [Compound 197] | 1 to 10 µM | > 10 µM | > 10 µM | 1 to 10 µM | 1 to 10 µM | > 10 µM | > 10 µM | > 10 µM
COc1cc(-c2ccc3c(c2)COc2nc(NC4CC5CC(F)(F)C(C4)N5)ccc2-3)cnn1 (stereo not drawn) [Compound 240, 6,6-difluoro-N-[8-(6-methoxypyridazin-4-yl)-6H-isochromeno[3,4-b]pyridin-3-yl]-8-azabicyclo[3.2.1]octan-3-amine] | < 0.1 µM | 0.1 to 1 µM | 1 to 10 µM | 1 to 10 µM | < 0.1 µM | 0.1 to 1 µM | 1 to 10 µM | 0.1 to 1 µM
CCc1cc(-c2ccc3c(c2)COc2nc(N4CCC(NC(C)(C)C)C4)ccc2-3)cnn1 (stereo not drawn) [Compound 284, N-tert-butyl-1-[8-(6-ethylpyridazin-4-yl)-6H-isochromeno[3,4-b]pyridin-3-yl]pyrrolidin-3-amine] | > 10 µM | > 10 µM | > 10 µM | > 10 µM | > 10 µM | 1 to 10 µM | > 10 µM | > 10 µM
COc1cc(-c2ccc3c(c2)COc2nc(N4CC[C@H](N(C)C(C)(C)C)C4)ccc2-3)cnn1 [Compound 270, (3S)—N-tert-butyl-1-[8-(6-methoxypyridazin-4-yl)-6H-isochromeno[3,4-b]pyridin-3-yl]-N-methylpyrrolidin-3-amine] | < 0.1 µM | < 0.1 µM | 0.1 to 1 µM | 0.1 to 1 µM | < 0.1 µM | < 0.1 µM | 0.1 to 1 µM | 0.1 to 1 µM
CN(c1ncc2c(n1)OCc1cc(-c3cn[nH]c3)ccc1-2)[C@@H]1C[C@H]2CC[C@@H](C1)N2 [Compound 294] | < 0.1 µM | 0.1 to 1 µM | 0.1 to 1 µM | 1 to 10 µM | < 0.1 µM | 0.1 to 1 µM | 0.1 to 1 µM | 0.1 to 1 µM
c1cnn(-c2ccc3c(c2)COc2nc(O[C@@H]4C[C@H]5CCC[C@@H](C4)N5)ccc2-3)c1 [Compound 198] | 0.1 to 1 µM | 0.1 to 1 µM | 0.1 to 1 µM | 0.1 to 1 µM | 0.1 to 1 µM | 0.1 to 1 µM | 0.1 to 1 µM | 1 to 10 µM
COc1cc(-c2ccc3c(c2)COc2nc(N4CCN[C@H](C5CC5)C4)ccc2-3)cnn1 [Compound 297] | < 0.1 µM | 0.1 to 1 µM | 0.1 to 1 µM | 0.1 to 1 µM | < 0.1 µM | < 0.1 µM | 0.1 to 1 µM | 0.1 to 1 µM
c1cnn(-c2ccc3c(c2)COc2nc(NC4CCNCC4)ccc2-3)c1 [Compound 174] | > 10 µM | > 10 µM | > 10 µM | > 10 µM | > 10 µM | 1 to 10 µM | > 10 µM | > 10 µM
CN1CCC12CCN(c1ccc3c(n1)OCc1cc(-c4cn[nH]c4)ccc1-3)C2 (stereo not drawn) [Compound 220, 3-(1-methyl-1,6-diazaspiro[3.4]octan-6-yl)-8-(1H-pyrazol-4-yl)-6H-isochromeno[3,4-b]pyridine] | 0.1 to 1 µM | 0.1 to 1 µM | 0.1 to 1 µM | 0.1 to 1 µM | 0.1 to 1 µM | 0.1 to 1 µM | 0.1 to 1 µM | 1 to 10 µM
COc1cc(-c2ccc3c(c2)COc2nc(N4CCN[C@@H](C(C)C)C4)ccc2-3)cnn1 [Compound 303] | < 0.1 µM | 0.1 to 1 µM | 0.1 to 1 µM | 0.1 to 1 µM | < 0.1 µM | < 0.1 µM | 0.1 to 1 µM | 0.1 to 1 µM
FC1(F)CC2CC(Nc3ccc4c(n3)OCc3cc(-n5nccn5)ccc3-4)CC1N2 (stereo not drawn) [Compound 238, 6,6-difluoro-N-[8-(1,2,3-triazol-2-yl)-6H-isochromeno[3,4-b]pyridin-3-yl]-8-azabicyclo[3.2.1]octan-3-amine] | 0.1 to 1 µM | 1 to 10 µM | 1 to 10 µM | 1 to 10 µM | 0.1 to 1 µM | 1 to 10 µM | 1 to 10 µM | 1 to 10 µM
COc1cc(-c2ccc3c(c2)COc2nc(N(C)C4CC(C)(C)NC(C)(C)C4)ccc2-3)cnn1 [Compound 231, N-[8-(6-methoxypyridazin-4-yl)-6H-isochromeno[3,4-b]pyridin-3-yl]-N,2,2,6,6-pentamethylpiperidin-4-amine] | 0.1 to 1 µM | 0.1 to 1 µM | 0.1 to 1 µM | 1 to 10 µM | 0.1 to 1 µM | < 0.1 µM | 0.1 to 1 µM | 0.1 to 1 µM
